Source: PubChem BioAssay (NCI)
Values joined by “and” are separate entries in the source; they are usually repeats but may differ in a detail not shown here. Equal values may be shown once.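 In this assay, cells in 96-well plates receive the compound at five concentrations for 48 hours. Endpoints are linearly interpolated between the surrounding concentrations. Here, GI50 denotes the concentration required for 50% inhibition of growth. TGI denotes the concentration required for complete inhibition of growth.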

Columns and labels:
Assay in all cases: inhibition of tumour cell growth, NCI panel, 48 h
DU-145 prostate = system: DU-145 prostate
SK-OV-3 ovarian = system: SK-OV-3 ovarian
NCI-H23 lung = system: NCI-H23 lung
PC-3 prostate = system: PC-3 prostate
RXF 393 renal = system: RXF 393 renal
SW-620 colon = system: SW-620 colon
IGROV1 ovarian = system: IGROV1 ovarian
SF-268 CNS = system: SF-268 CNS
HCT-116 colon = system: HCT-116 colon
CCRF-CEM leukemia = system: CCRF-CEM leukemia

SMILES | GI50 (DU-145 prostate) | TGI (DU-145 prostate) | GI50 (SK-OV-3 ovarian) | TGI (SK-OV-3 ovarian) | GI50 (NCI-H23 lung) | TGI (NCI-H23 lung) | GI50 (PC-3 prostate) | TGI (PC-3 prostate) | GI50 (RXF 393 renal) | TGI (RXF 393 renal) | GI50 (SW-620 colon) | TGI (SW-620 colon) | GI50 (IGROV1 ovarian) | TGI (IGROV1 ovarian) | GI50 (SF-268 CNS) | TGI (SF-268 CNS) | GI50 (HCT-116 colon) | TGI (HCT-116 colon) | GI50 (CCRF-CEM leukemia) | TGI (CCRF-CEM leukemia)
CCN(CC)CCCCCCNc1cc(OC)cc2cccnc12 | 1.8 µM | 3.65 µM | 17.7 µM | 33 µM | 13.3 µM | 30.3 µM | 2.06 µM | 4.1 µM | 4.26 µM | 15.7 µM | 1.79 µM | 3.71 µM | 2.27 µM | 4.86 µM | 1.72 µM | 3.83 µM | 1.93 µM | 3.55 µM | 2.39 µM | 4.97 µM
N#CCCN1C/C(=C/c2ccc(Cl)cc2)C(=O)/C(=C/c2ccc(Cl)cc2)C1 | 1.9 µM | 4.2 µM | 2.23 µM | 5.4 µM | 2.18 µM | 5.61 µM | 0.489 µM | 3.61 µM | 1.22 µM | 2.61 µM | 0.338 µM | 1.15 µM | 1.75 µM | 3.95 µM | 1.51 µM | 3.09 µM | 0.25 µM | 0.59 µM | 0.396 µM | 2.88 µM
COC(=O)[C@H]1CCCN1C(=O)[C@H]1CCCN1C(=O)[C@@H](Cc1c[nH]c2ccccc12)NC(=S)Nc1cc(C(F)(F)F)cc(C(F)(F)F)c1 | 2.6 µM | 6.79 µM | 3.01 µM | 10.1 µM | 2.07 µM | 4.68 µM | 1.61 µM | 3.04 µM | 1.34 µM | 2.72 µM | 2 µM | 4.62 µM | 1.88 µM | 4.16 µM | 2 µM | 5.4 µM | 1.95 µM | 3.77 µM | 3.14 µM | > 100 µM
O=[N+]([O-])c1ccc(N2CCOCC2)c2c1no[n+]2[O-] | 1.42 µM | 5.76 µM | 1.43 µM | 4.68 µM | 1.08 µM | 4.83 µM | 1.25 µM | 5.53 µM | 1.49 µM | 4.01 µM | 1.18 µM | 2.48 µM | 1.3 µM | 4.15 µM | 0.939 µM | 3.03 µM | 0.965 µM | 2.24 µM | 0.728 µM | 3.86 µM
NS(=O)(=O)c1ccc(-c2cc3ccncc3cc2OCc2ccccc2)cc1 | 16.4 µM | > 25 µM | 11.1 µM | > 19.3 µM | > 25 µM | > 25 µM | > 20.5 µM | > 25 µM | 7.16 µM | > 25 µM | > 22.9 µM | > 25 µM | > 25 µM | > 25 µM | > 20.1 µM | > 25 µM | > 14.8 µM | > 25 µM | > 17.7 µM | > 25 µM
Cc1cc(N(CCCNc2ccnc3cc(Cl)ccc23)Cc2ccco2)nc(N2CCN(C)CC2)n1 | 5.69 µM | 18.8 µM | 5.99 µM | 31.2 µM | 5.52 µM | 22.1 µM | 4.12 µM | 17.3 µM | 1.79 µM | 3.55 µM | 2.82 µM | 12.2 µM | 2.39 µM | 12.3 µM | 2.9 µM | 15.7 µM | 2.48 µM | 10.7 µM | 2.84 µM | 10.2 µM
O=C(O)Cc1cccnc1 |  | > 100 µM |  | > 100 µM |  | > 100 µM |  | > 100 µM |  | > 100 µM |  | > 100 µM |  | > 100 µM |  | > 100 µM |  | > 100 µM |  | > 100 µM
O=C(CC1(O)C(=O)N(Cc2ccccc2)c2ccccc21)c1ccc(C(=O)NCC2CCC3(CC2)OOC2(CCCCC2)OO3)cc1 (configuration not stated) | 0.25 µM | 0.625 µM | 6.57 µM | > 51.1 µM | 0.402 µM | 1.28 µM | 1.58 µM | 4.91 µM | 0.705 µM | 1.98 µM | 3.56 µM | > 41.5 µM | 0.408 µM | 1.62 µM | 1.85 µM | 4.03 µM | 2.29 µM | 6.13 µM | 0.421 µM | 2.17 µM
CC1=C(CC(=O)c2cccc([N+](=O)[O-])c2)C(=O)c2ccccc2C1=O | 7.55 µM | 20.1 µM | 28.6 µM | 99.2 µM | 9.12 µM | 36.9 µM | 7.14 µM | 63.2 µM | 3.14 µM | 16.6 µM | 4.01 µM | 18.9 µM | 4.62 µM | 29 µM | 9.19 µM | 26.9 µM | 3.01 µM | 10.6 µM | 3.19 µM | 19.3 µM
CC1OC(OC2C(O)CC(OC3C(O)CC(OC4CCC5(C)C(CCC6C5CC(O)C5(C)C(C7=CC(=O)OC7)CCC65O)C4)OC3C)OC2C)CC(O)C1O (configuration not stated) | 0.0308 µM | 0.0903 µM | 0.0513 µM | 0.171 µM | 0.0235 µM | 0.0662 µM | 0.0543 µM | 0.538 µM | 0.0293 µM | 0.0994 µM | 0.0423 µM | 0.165 µM | 0.127 µM | 1.11 µM | 0.0359 µM | 0.133 µM | 0.0331 µM | 0.115 µM | 0.0358 µM | 0.245 µM
COc1ccc(/C=C(\C#N)n2nnc3c(F)cccc32)cc1 | 0.503 µM | > 40.2 µM | 1.05 µM | > 90 µM | 0.508 µM | 12.5 µM | 0.381 µM | > 100 µM | 0.182 µM | 0.572 µM | 0.2 µM | > 100 µM | 0.388 µM | > 36.9 µM | 1.68 µM | > 100 µM | 0.363 µM | > 31.6 µM | 0.311 µM | > 100 µM
COC(=O)c1cncc(/C=C/c2c(C)cc(O)cc2C)c1 | 13.6 µM | > 25 µM | 8.01 µM | 24.8 µM | 10.5 µM | > 25 µM | 12.2 µM | > 25 µM | 5.97 µM | 16.7 µM | 8.63 µM | > 25 µM | > 19.8 µM | > 25 µM | 14.1 µM | > 25 µM | 14.2 µM | > 25 µM | 6.77 µM | > 25 µM
O=C(/C=C/c1cccc(O)c1)c1cccc(-n2cc(-c3ccccc3)[nH]c2=O)c1 | 3.15 µM | 10.3 µM | 12.3 µM | 25 µM | 3.64 µM | 14.4 µM | 2.82 µM | 11.1 µM | 1.83 µM | 3.51 µM | 2.13 µM | 4.74 µM | 3.24 µM | 13.2 µM | 3.66 µM | 12.3 µM | 2.22 µM |  | 3.1 µM | > 41.1 µM
COC(=O)CCCCC(=O)c1c(C)[nH]c(/C=C2\N=C(c3ccc[nH]3)C=C2OC)c1C | 0.482 µM | 1.81 µM | 2.25 µM | 4.4 µM | 1.46 µM | 3.6 µM | 0.47 µM | 1.88 µM | 0.524 µM | 2 µM | 0.395 µM | 1.54 µM | 1.22 µM | 2.57 µM | 0.802 µM | 2.17 µM | 0.109 µM |  | 0.159 µM | 2.32 µM
CSc1nc2sc3c(c2c(=O)n1-c1ccc(C(C)C)cc1)CCC(=O)C3 | 3.75 µM | > 100 µM | 2.63 µM | 6.92 µM | 2.2 µM | 4.53 µM | 1.6 µM | 3.21 µM | 2.21 µM | 5.37 µM | 2.23 µM | 4.56 µM | 2.02 µM | 4.88 µM | 2.18 µM | 5.2 µM | 1.94 µM | 3.73 µM | 2.42 µM | 6.42 µM
c1ccc2c(c1)Nc1ccncc1S2 | 32.3 µM | > 100 µM | 37 µM | > 100 µM | 20.7 µM | > 100 µM | 27 µM | > 100 µM | 11.9 µM | 32 µM | 21.2 µM | 92.6 µM | 22.8 µM | 99.6 µM | 24.5 µM | > 100 µM | 20.5 µM | > 100 µM | 28.2 µM | > 100 µM
CC(C)(Br)C(=O)C(Br)Br |  | 70.6 µM | 32.8 µM | 31.3 µM and 69.8 µM | 5.84 µM | 15.7 µM and 10.5 µM |  | 11 µM | 5.31 µM | 10 µM and 9.81 µM | 5.12 µM | 3.59 µM and 10.4 µM | 3.66 µM | 21.8 µM and 8.09 µM | 7.42 µM | 27.1 µM and 26 µM | 5.33 µM | 9.91 µM and 9.61 µM | 2.72 µM | 
N#CCN1CCn2c1nsc2=S | > 100 µM | > 100 µM | > 100 µM | > 100 µM |  |  | > 100 µM | > 100 µM | > 100 µM | > 100 µM | > 100 µM | > 100 µM | > 100 µM | > 100 µM | > 100 µM | > 100 µM | > 100 µM | > 100 µM | 1.6 µM | > 100 µM
O=C1c2sccc2-c2cccc3cccc1c23 (tested in a mixture with another compound) |  | 7.03 µM |  | > 100 µM |  |  |  | 31.6 µM |  | > 100 µM |  | 17.2 µM |  | 50.2 µM |  | > 100 µM |  | > 100 µM |  | 12.8 µM
